Measured values taken from patent US20200029558A1, “Biocidal Microcapsules for Biofouling Control” (Greenseal Research Ltd, priority 2016, published 2020).

What was measured:
Format in all cases: cell-based
[1] = test system: Staphylococcus aureus (ATCC 25923); experiment: Well diffusion antimicrobial bioassay of microcapsules; details: wells approx. 5.0 mm, 37° C. 24 hours
Method: (§1) Bioassays were performed to assess the antimicrobial activity against Staphylococcus aureus (ATCC 25923) by the Well diffusion method, at different mediums (artificial sea water (Sera marine salt), DMSO and MilliQ water). Initially, the microorganisms were cultured on Muller-Hinton agar for bacteria Staphylococcus aureus. Then, 100 μL of a standardized microorganism suspension, corresponding to 0.5 McFarland, was used to inoculate a Petri dish of solid Mueller-Hinton medium. These suspensions were spread over the medium surface using a sterile swab. Subsequently, agar wells were made of approximately 5.0 mm in diameter with a Pasteur pipette. Then, 50 μL of each sample, negative control (DMSO) and positive control (Econea) for Gram positive bacteria (Staphylococcus aureus), were added on each of the wells. Plates were incubated at 37° C. for 24 hours. After this period, the diameters of the inhibition zones were measured and the results were expressed in millimeters (mm). The assay was performed under aseptic conditions and in triplicate [M. Pereira, D. Matias, F. Pereira, C. P. Reis, M. F. Simões, P. Rijo, Antimicrobial screening of Plectranthus madagascariensis and P. neochilus extracts, Biomedical and Biopharmaceutical Research, Vol. 12 (2015) 127-138]. Following the above described procedure, different mediums were used to assess the bioactivity of microcapsules, such as artificial sea water, MilliQ water and dimethyl sulfoxide (DMSO) (Table 1).
Following similar bioassays procedures as example 1, different mediums were used to assess the bioactivity of microcapsules, such as artificial sea water, MilliQ water and dimethyl sulfoxide (DMSO) (Table 3).

[2] = test system: Staphylococcus aureus (ATCC25923); experiment: Antimicrobial activity of coating formulation films containing biocidal microcapsules
Method: as §1, with “Following the above described procedure, different mediums were used to assess the bioactivity of microcapsules, such as artificial sea water, MilliQ water and dimethyl sulfoxide (DMSO) (Table 1).” left out

[3] = test system: Staphylococcus aureus (ATCC25923); experiment: Leaching tests on coated specimens (adapted OECD 313-2007), leaching waters assessed by bioassay; details: after 30 days of exposure in artificial sea water, 120 rpm
Method: as §1, with “The assay was performed under aseptic conditions and in triplicate [M. Pereira, D. Matias, F. Pereira, C. P. Reis, M. F. Simões, P. Rijo, Antimicrobial screening of Plectranthus madagascariensis and P. neochilus extracts, Biomedical and Biopharmaceutical Research, Vol. 12 (2015) 127-138]. Following the above described procedure, different mediums were used to assess the bioactivity of microcapsules, such as artificial sea water, MilliQ water and dimethyl sulfoxide (DMSO) (Table 1).” left out
Leaching of the biocide through the paint films of coated specimens containing the developed biocidal MCs was assessed by leaching tests, following an adapted procedure from the standard OECD 313-2007. […] Finally, the antimicrobial activity of the leaching waters was assessed by bioassays against microorganisms such as Staphylococcus aureus, following the same procedure as described in the previous examples.

## N#Cc1c(-c2ccc(Cl)cc2)[nH]c(C(F)(F)F)c1Br [Econea biocide, 2-(p-chlorophenyl)-3-cyano-4-bromo-5-trifluoromethyl pyrrole]
[1]; medium DMSO
  Inhibition zones: 19 mm
[1]; medium MilliQ water
  Inhibition zones: 23 mm
[1]; medium artificial sea water
  Inhibition zones: 20 mm
[2]; medium DMSO
  Inhibition zones of polyurethane based coating formulations: 20 mm
[2]; medium artificial sea water
  Inhibition zones of polyurethane based coating formulations: 18 mm
[3]
  Inhibition zones of leaching waters of immersed coated specimens: 20 mm
